The record followed here is patent publication US12565505B2, “mTORC modulators and uses thereof” (Aeovian Pharmaceuticals, Inc., priority 2019, dated 2026).

The target of one experiment is T1, mTORC1 (Homo sapiens, UniProt P42345+P62942).
T1 construct: endogenous in cells; host or cells: PC3 cells (human prostate adenocarcinoma)
Nature of the experiment: Inhibition assay for mTORC1: phosphorylation of pS6K at Thr389, AlphaLISA SureFire in PC3 cells. The experiment is classed as cell-based. The settings on record: PC3 cells, 24 hours treatment, pS6K Thr389; analogs substituted at C40 and C16 (C16 diastereomer mixtures not isolated); read-out: pIC50 mTORC1 (converted). The gist of the method: (§1)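 Human prostate adenocarcinoma PC3 cells treated with compounds for 24 h. AlphaLISA SureFire read-out of pS6K Thr389 for mTORC1 and pAkt Ser473 for mTORC2, from which IC50s were derived.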

In the next experiment the target is T2, mTORC2 (Homo sapiens, UniProt P42345+P62942).
T2 construct: endogenous in cells; host or cells: PC3 cells (human prostate adenocarcinoma)
Nature of the experiment: Inhibition assay for mTORC2: phosphorylation of pAkt at Ser473, AlphaLISA SureFire in PC3 cells. The format is cell-based. The settings on record: PC3 cells, 24 hours treatment, analogs substituted at C40 and C16 (C16 diastereomer mixtures not isolated), read-out: pIC50 mTORC2 (converted). The gist of the method:
as §1
(In Alpha technology, singlet oxygen from a donor bead excites a nearby acceptor bead.)

Consider `COCCOC1C[C@@H]2CC[C@@H](C)[C@@](O)(O2)C(=O)C(=O)N2CCCCC2C(=O)O[C@H]([C@H](C)C[C@@H]2CC[C@@H](OC)[C@H](OC)C2)CC(=O)[C@H](C)/C=C(\C)[C@@H](O)[C@@H](OC)C(=O)[C@H](C)C[C@H](C)/C=C/C=C/C=C/1C` (some centres unmarked) [Compound 11], for which the IC50 on mTORC1 is under 0.316 nM; at mTORC2, over 10000 nM.

Take `COCCOC1C[C@@H]2CC[C@@H](C)[C@@](O)(O2)C(=O)C(=O)N2CCCCC2C(=O)O[C@H]([C@H](C)C[C@@H]2CC[C@@H](OCCCCN3CCOCC3)[C@H](OC)C2)CC(=O)[C@H](C)/C=C(\C)[C@@H](O)[C@@H](OC)C(=O)[C@H](C)C[C@H](C)/C=C/C=C/C=C/1C` (some centres unmarked) [Compound 56]: the IC50 is under 0.316 nM on mTORC1 and 1000 to 10000 nM at mTORC2.

For the compound `CO[C@@H]1C[C@H](C[C@@H](C)[C@@H]2CC(=O)[C@H](C)/C=C(\C)[C@@H](O)[C@@H](OC)C(=O)[C@H](C)C[C@H](C)/C=C/C=C/C=C(\C)C(OCCO)C[C@@H]3CC[C@@H](C)[C@@](O)(O3)C(=O)C(=O)N3CCCCC3C(=O)O2)CC[C@H]1OC(=O)NCCN1CCOCC1` (some centres unmarked) [Compound 82], the figures for the IC50 on mTORC1 and on mTORC2 were 0.316 to 3.16 nM and 1000 to 10000 nM, respectively.

Take `CO[C@@H]1C[C@H](C[C@@H](C)[C@@H]2CC(=O)[C@H](C)/C=C(\C)[C@@H](O)[C@@H](OC)C(=O)[C@H](C)C[C@H](C)/C=C/C=C/C=C(\C)C(OCc3ccccc3)C[C@@H]3CC[C@@H](C)[C@@](O)(O3)C(=O)C(=O)N3CCCCC3C(=O)O2)CC[C@H]1OCCCc1ccccc1` (some centres unmarked) [Compound 116]: the values for the IC50 on mTORC1 and on mTORC2 were 0.316 to 3.16 nM and under 1000 nM, respectively.

For `CO[C@@H]1C[C@H](C[C@@H](C)[C@@H]2CC(=O)[C@H](C)/C=C(\C)[C@@H](O)[C@@H](OC)C(=O)[C@H](C)C[C@H](C)/C=C/C=C/C=C(\C)C(OCCO)C[C@@H]3CC[C@@H](C)[C@@](O)(O3)C(=O)C(=O)N3CCCCC3C(=O)O2)CC[C@H]1OCCCc1ccccc1` (some centres unmarked) [Compound 38], the IC50 is 0.316 to 3.16 nM on mTORC1 and over 10000 nM at mTORC2.

In the case of `COCCCCOC1C[C@@H]2CC[C@@H](C)[C@@](O)(O2)C(=O)C(=O)N2CCCCC2C(=O)O[C@H]([C@H](C)C[C@@H]2CC[C@@H](OCCCN3CCOCC3)[C@H](OC)C2)CC(=O)[C@H](C)/C=C(\C)[C@@H](O)[C@@H](OC)C(=O)[C@H](C)C[C@H](C)/C=C/C=C/C=C/1C` (some centres unmarked) [Compound 65], the IC50 at mTORC1 is under 0.316 nM; on mTORC2, 1000 to 10000 nM.

Turning to `CO[C@@H]1C[C@H](C[C@@H](C)[C@@H]2CC(=O)[C@H](C)/C=C(\C)[C@@H](O)[C@@H](OC)C(=O)[C@H](C)C[C@H](C)/C=C/C=C/C=C(\C)C(OCCO)C[C@@H]3CC[C@@H](C)[C@@](O)(O3)C(=O)C(=O)N3CCCCC3C(=O)O2)CC[C@H]1OC(=O)N(C)CCCN(C)C` (some centres unmarked) [Compound 77], the IC50 on mTORC1 was 0.316 to 3.16 nM; at mTORC2, over 10000 nM.
